Results as given in PubChem BioAssay (NCI).
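Compound exposure: 48 hours, 5 concentrations, 96-well plates. GI50 marks 50% less growth. The concentration for full growth arrest is given as TGI.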

What was measured:
Experiment in all cases: NCI tumour cell line growth inhibition, 48 h
[1] = system: HL-60(TB) leukemia
[2] = system: HCT-15 colon
[3] = system: RPMI-8226 leukemia
[4] = system: HOP-62 NSCLC
[5] = system: KM12 colon
[6] = system: NCI-H522 lung
[7] = system: BT-549 breast
[8] = system: CCRF-CEM leukemia
[9] = system: HCC-2998 colon
[10] = system: PC-3 prostate
[11] = system: OVCAR-8 ovarian
[12] = system: UACC-62 melanoma
[13] = system: NCI-H226 lung
[14] = system: SK-MEL-2 melanoma
[15] = system: T-47D breast
[16] = system: ACHN renal
[17] = system: NCI-H460 lung
[18] = system: EKVX NSCLC
[19] = system: LOX IMVI melanoma
[20] = system: 786-0 renal
[21] = system: NCI/ADR-RES ovarian
[22] = system: HS 578T breast
[23] = system: MOLT-4 leukemia
[24] = system: OVCAR-3 ovarian
[25] = system: M14 melanoma
[26] = system: NCI-H23 lung
[27] = system: SF-295 CNS
[28] = system: OVCAR-4 ovarian
[29] = system: UACC-257 melanoma
[30] = system: DU-145 prostate
[31] = system: SNB-75 CNS
[32] = system: SK-MEL-5 melanoma
[33] = system: MALME-3M melanoma
[34] = system: SK-MEL-28 melanoma
[35] = system: SW-620 colon
[36] = system: A498 renal
[37] = system: HT29 colon
[38] = system: A549 NSCLC
[39] = system: SK-OV-3 ovarian
[40] = system: MDA-MB-435
[41] = system: SF-539 CNS
[42] = system: HOP-92 NSCLC
[43] = system: HCT-116 colon
[44] = system: SR leukemia
[45] = system: IGROV1 ovarian
[46] = system: OVCAR-5 ovarian
[47] = system: MDA-MB-231 breast
[48] = system: K-562 leukemia
[49] = system: UO-31 renal
[50] = system: U251 CNS
[51] = system: TK-10 renal
[52] = system: SNB-19 CNS
[53] = system: SN12C renal
[54] = system: RXF 393 renal
[55] = system: MCF7 breast
[56] = system: CAKI-1 renal
[57] = system: COLO 205 colon
[58] = system: SF-268 CNS

C=C(C)[C@@H]1CC[C@]2(C)[C@H](CC[C@@H]3[C@@H]([C@@](C)(O)CCC=C(C)C)CC[C@]32C)[C@@]1(C)CCC(=O)N1CCN(C)CC1
GI50 [1]: 4.26 µM
TGI [1]: 19.2 µM
GI50 [2]: 6.04 µM
TGI [2]: 18.1 µM
GI50 [3]: 5.99 µM
TGI [3]: 28.6 µM
GI50 [4]: 12.8 µM
TGI [4]: 26.1 µM
GI50 [5]: 10.5 µM
TGI [5]: 23.6 µM
GI50 [6]: 13.4 µM
TGI [6]: 28.2 µM
GI50 [7]: 11.2 µM
TGI [7]: 24.1 µM
GI50 [8]: 11.6 µM
TGI [8]: 37.6 µM
GI50 [9]: 13.5 µM
TGI [9]: 26.3 µM
GI50 [10]: 3.77 µM
TGI [10]: 15.8 µM
GI50 [11]: 14.1 µM
TGI [11]: 30.5 µM
GI50 [12]: 11.2 µM
TGI [12]: 24.1 µM
GI50 [13]: 12.9 µM
TGI [13]: 31.7 µM
GI50 [14]: 14.8 µM
TGI [14]: 29.8 µM
GI50 [15]: 4.72 µM
TGI [15]: 19.6 µM
GI50 [16]: 13.6 µM
TGI [16]: 26.5 µM
GI50 [17]: 16.9 µM
TGI [17]: 32.9 µM
GI50 [18]: 11.6 µM
TGI [18]: 23.9 µM
GI50 [19]: 13.4 µM
TGI [19]: 26.5 µM
GI50 [20]: 10.3 µM
TGI [20]: 23.8 µM
GI50 [21]: 12.1 µM
TGI [21]: 25 µM
GI50 [22]: 13.1 µM
TGI [22]: 36.5 µM
GI50 [23]: 6.39 µM
TGI [23]: 29.3 µM
GI50 [24]: 10.4 µM
TGI [24]: 22.5 µM
GI50 [25]: 10.1 µM
TGI [25]: 24.2 µM
GI50 [26]: 13.7 µM
TGI [26]: 27.5 µM
GI50 [27]: 13.4 µM
TGI [27]: 26.2 µM
GI50 [28]: 10.1 µM
TGI [28]: 23.4 µM
GI50 [29]: 11.8 µM
TGI [29]: 25.6 µM
GI50 [30]: 11.9 µM
TGI [30]: 24.6 µM
GI50 [31]: 11.3 µM
TGI [31]: 25 µM
GI50 [32]: 6.97 µM
TGI [32]: 19.6 µM
GI50 [33]: 10.7 µM
TGI [33]: 23.6 µM
GI50 [34]: 12.9 µM
TGI [34]: 25.8 µM
GI50 [35]: 13 µM
TGI [35]: 28.5 µM
GI50 [36]: 13.2 µM
TGI [36]: 26.6 µM
GI50 [37]: 4.14 µM
TGI [37]: 16.2 µM
GI50 [38]: 9.65 µM
TGI [38]: 24.2 µM
GI50 [39]: 12.9 µM
TGI [39]: 26.4 µM
GI50 [40]: 12.2 µM
TGI [40]: 26.5 µM
GI50 [41]: 9.44 µM
TGI [41]: 21.7 µM
GI50 [42]: 6.4 µM
TGI [42]: 20.7 µM
GI50 [43]: 4.43 µM
TGI [43]: 16.9 µM
GI50 [44]: 3.39 µM
TGI [44]: 21.6 µM
GI50 [45]: 12.7 µM
TGI [45]: 27.4 µM
GI50 [46]: 14 µM
TGI [46]: 27.4 µM
GI50 [47]: 13.4 µM
TGI [47]: 26.7 µM
GI50 [48]: 4.26 µM
TGI [48]: 24.1 µM
GI50 [49]: 11.3 µM
TGI [49]: 23.3 µM
GI50 [50]: 10.1 µM
TGI [50]: 22 µM
GI50 [51]: 17.7 µM
TGI [51]: 32.2 µM
GI50 [52]: 15 µM
TGI [52]: 28.4 µM
GI50 [53]: 11.4 µM
TGI [53]: 24.2 µM
GI50 [54]: 5.25 µM
TGI [54]: 16.4 µM
GI50 [55]: 7 µM
TGI [55]: 21.1 µM
GI50 [56]: 12.4 µM
TGI [56]: 24.9 µM
GI50 [57]: 12.3 µM
TGI [57]: 26.8 µM
GI50 [58]: 13.1 µM
TGI [58]: 30.1 µM
